From patent US6093692A, “Method and compositions for lipidization of hydrophilic molecules” (The University of Southern California, priority 1997, dated 2000)

Key:
[1] = Plasma calcitonin and calcium after subcutaneous administration; assay type: in vivo, mice; details: s.c., 125 μg/kg in 10% Liposyn II
Protocol: Both CT and CT-P were iodinated with ^125 I using chloramine T method. ^125 I-CT or ^125 I-CT-P was injected s.c. into mice at a dose of 125 μg/kg in 10% Liposyn® II (Abbott). Groups of three mice were sacrificed at different time points. The levels of calcium in the blood samples were determined by using a commercial calcium diagnostic kit (Sigma Chemical Co.). The plasma from each mouse was isolated and treated with 5% trichloroacetic acid (TCA) in an ice bath. The radioactivity in the hs TCA precipitates were considered as the intact CT in the plasma.

[2] = Gastro-intestinal absorption and calcium-lowering effect after oral administration; assay type: in vivo, CF mice; details: 100 μg/kg in PBS, one hour, CT-RIA, N = 3, S.D.
Protocol: CT and CT-P were orally administered to CF mice using a gavaging needle at a dose of 100 μg/kg in PBS. The mice, three of each group, were sacrificed 1 hour after the treatment, and the plasma was isolated from their blood. The levels of CT and calcium were measured by using commercial CT-RIA (Phoenix) and calcium diagnostic (Sigma Chemical Co.) kits, respectively. […] Furthermore, the level of calcium in plasma at 1 hour was lower in CT-P treated mice than that in CT treated mice, which was consistent with the finding in CT levels. Because the crossreactivity of CT-P to the anti-CT antibody is only about 10%, the actual concentration of total CT in the plasma of CT-P treated mice could be even higher than the value presented in Table 5.

[3] = test system: Brattleboro rats with hereditary hypothalamic diabetes insipidus; test: Anti-diuretic effects in rats with hereditary hypothalamic diabetes insipidus, subcutaneous; assay type: in vivo; details: s.c., 3.3 μg/kg in 10% Liposyn II, FIG. 7
Protocol: Brattleboro rats, which carry the hereditary disease of hypothalamic diabetes insipidus, were used to compare the effects of DP and DP-P for alleviating the disease symptoms, i.e., polyuria and polydipsia. A group of three Brattleboro rats were kept separately in three metabolic cages. Their body weight, water intake and urine output were measured every day. DP and DP-P were dissolved in 10% Liposyn® II (Abbott Laboratories, Abbott Park, Ill., USA) and injected subcutaneously (s.c.) to each rat at doses ranging from 0.02 to 20 μg/kg. […] On the other hand, DP-P at the identical dose could maintain the rats symptom-free for more than 3 days, as indicated by the reduction of both water intake and urine output without significant change of the body weight.
In order to evaluate the dose-dependent responses to DP and DP-P in Battleboro rats, the effectiveness of anti-diuretic activity was defined as the length of time that a more than 50% reduction of the urine volume can be maintained in the treated animals.

[4] = test system: mouse fibroblasts L929 cells; test: Cellular uptake of HRPssPal; assay type: cell-based; details: 30 μg/ml, serum-free medium, 1 hour, 37° C.
Protocol: Confluent monolayers of mouse fibroblasts L929 cells in 6-well culture cluster plates were incubated in serum-free medium with 30 μg/ml of HRP, either as the native form or as the palmitic acid conjugate (HRPssPal). After 1 hour at 37° C., monolayers were washed three times with PBS and then dissolved in 1 ml of 0.05% of Triton-X100. Cell-associated HRP was determined by measuring the enzymatic activity in each cell extract and the results converted to ng HRP per cell monolayer. […] Therefore, a 30-fold increase in cell uptake was achieved by modification of HRP with Pal-PDC.

Caco-2 monolayers = assay type: in vitro ADME, Human
Protocol: Suspended Caco-2 cells in 1.5 ml of medium were seeded into the apical chamber of the transwells at a density of 0.5 million cells per insert. 2.5 ml of the medium was then added to the basal chambers of each transwell. The cells were allowed to attach for 2 days without disturbance and were then fed every other day until the experiments were performed. The cells were maintained for approximately 14-20 days prior to the experiments and were fed 24 hr before each experiment. The cell monolayers developed a transepithelial electrical resistance (TEER) of approximately 500-600 .OMEGA.) cm^2 within one week of the seeding and maintained this resistance for up to 21 days post-seeding.
Confluent cell monolayers, 2 to 3 weeks old, and having a TEER value of approximately 500 .OMEGA. cm^2, were first incubated with Dulbecco's MEM containing 1% of FBS for 30 min at 37° C. […] At predetermined times, the entire basal chamber medium (2.5 ml) from each transwell was removed and counted for radioactivity using a gamma counter. […] After the 24 hr samples were taken, the cell monolayers were rinsed three times with ice-cold PBS, cut out of the inserts, and counted for accumulated radioactivity using a gamma counter. […]
BBI was modified with 2 or 4 palmitic acids, and the transport was determined in transwells. […]

CC(C)C[C@H](NC(=O)[C@H](CCCCN)NC(=O)CNC(=O)[C@H](CC(C)C)NC(=O)[C@@H](NC(=O)[C@@H]1CSSC[C@H](N)C(=O)N[C@@H](CO)C(=O)N[C@@H](CC(N)=O)C(=O)N[C@@H](CC(C)C)C(=O)N[C@@H](CO)C(=O)N[C@@H]([C@@H](C)O)C(=O)N1)C(C)C)C(=O)N[C@@H](CO)C(=O)N[C@@H](CCC(N)=O)C(=O)N[C@@H](CCC(=O)O)C(=O)N[C@@H](CC(C)C)C(=O)N[C@@H](Cc1c[nH]cn1)C(=O)N[C@@H](CCCCN)C(=O)N[C@@H](CC(C)C)C(=O)N[C@@H](CCC(N)=O)C(=O)N[C@H](C(=O)N[C@@H](Cc1ccc(O)cc1)C(=O)N1CCC[C@H]1C(=O)N[C@@H](CCCNC(=N)N)C(=O)N[C@H](C(=O)N[C@@H](CC(N)=O)C(=O)N[C@H](C(=O)NCC(=O)N[C@@H](CO)C(=O)NCC(=O)N[C@H](C(=O)N1CCC[C@H]1C(N)=O)[C@@H](C)O)[C@@H](C)O)[C@@H](C)O)[C@@H](C)O [CT, Salmon calcitonin]
Plasma clearance [1]: rapid plasma clearance | Plasma calcitonin concentration, CT [2]: 9.2 ± 0.7 pg/0.1 ml plasma

NC(=O)CC[C@@H]1NC(=O)[C@H](Cc2ccccc2)NC(=O)[C@H](Cc2ccc(O)cc2)NC(=O)CCSSC[C@@H](C(=O)N2CCC[C@H]2C(=O)N[C@H](CCCN=C(N)N)C(=O)NCC(N)=O)NC(=O)[C@H](CC(N)=O)NC1=O [DP, Desmopressin]
Time rats maintained symptom-free [3]: less than one

horseradish peroxidase [HRP]
Cellular uptake [4]: 7 ng HRP per cell monolayer

B1: BBIssPal(4): BBI modified with 4 palmitic acids (conjugate, UniProt P01055 40-110, looked up)
Bowman-Birk type proteinase …: DDESSKPCCDQCACTKSNPPQCRCSDMRLNSCHSACKSCICALSYPAQCFCVDITDFCYEPCKPSEDDKEN
modifications: 4 palmityl disulfide groups
notes: BBI modified with 4 palmitic acids
Internalization of the conjugates into the cells (rank) (Caco-2 monolayers): highest uptake into the cells
